In brackets after ≈: the same amount, converted by molar mass. Read-outs that look alike come from different tables or passages of the source.
How the values were obtained:
P. aeruginosa = test: Checkerboard assay (antibiotic + adjuvant combination MIC); format: cell-based, Pseudomonas aeruginosa; details: for MIC of Novobiocin + adjuvant (7.1 μM): PMBN or 1 at 7.1 μM
Method: (§1) Antimicrobial Susceptibility Assay. The in vitro antimicrobial activity of all compounds/antibiotics against a panel of bacteria was evaluated by microbroth dilution method in accordance with the Clinical and Laboratory Standards Institute (CLSI) guidelines (using ATCC strains as quality control strains) (54). Overnight grown bacterial cultures were diluted in saline to achieve a 0.5 McFarland turbidity, followed by 1:50 dilution in Mueller-Hinton broth (MHB) for inoculation to a final concentration of approximately 5×10^5 CFU/mL. […] The lowest concentration that prevented the visible growth of bacteria was defined as the MIC for each antimicrobial agent. The broth with or without bacterial cells was used as positive or negative control, respectively.
(§2) Checkerboard Assay. Combination studies with different antibiotics were performed in 96-well plates as previously described (19). Briefly, the antibiotic of interest was serially diluted in MHB along the abscissa while the adjuvant (tobramycin homodimer) was serially diluted in MHB along the ordinate. This creates a 10×7 matrices wherein each well consists of a combination of different antibiotic and adjuvant concentrations. Overnight grown bacterial cultures were diluted in saline to achieve a 0.5 McFarland turbidity, followed by 1:50 dilution in Mueller-Hinton broth (MHB) for inoculation to a final concentration of approximately 5×10^5 CFU/mL. […] MIC was recorded as wells with the lowest concentration of drugs with no bacterial growth. The fractional inhibitory concentration (FIC) for each antibiotic was calculated by dividing the MIC of the antibiotic in the presence of adjuvant by the MIC of the antibiotic alone. Similarly, the FIC of adjuvant was calculated by dividing the MIC of the adjuvant in the presence of antibiotic by the MIC of the adjuvant alone. FIC index is the sum of both FICs. FIC indices of ≤0.5 were deemed synergistic; >0.5-4, no interaction; and >4, antagonistic.

A. baumannii = test: as above; format: cell-based, Acinetobacter baumannii
Method: as §1, §2

E. coli = test: as above; format: cell-based, Escherichia coli; details: PMBN or 1 at 7.1 μM
Method: as §1, §2

K. pneumoniae = test: as above; format: cell-based, Klebsiella pneumoniae; details: KP 113254; PMBN or 1 at 7.1 μM
Method: as §1, §2

E. cloacae = test: as above; format: cell-based, Enterobacter cloacae; details: EC 118568; PMBN or 1 at 7.1 μM
Method: as §1, §2

[1] = tested on: P. aeruginosa PAO1 and efflux deficient mutants, MDR/XDR isolates; test: microbe, parasite or virus in culture; format: cell-based, Pseudomonas aeruginosa
Method: Antimicrobial Susceptibility Assay. The in vitro antimicrobial activity of all compounds/antibiotics against a panel of bacteria was evaluated by microbroth dilution method in accordance with the Clinical and Laboratory Standards Institute (CLSI) guidelines (using ATCC strains as quality control strains) (54). […] The broth with or without bacterial cells was used as positive or negative control, respectively.

[2] = P. aeruginosa PAO1, compound at 8 μM
[3] = PA 262-101856, compound at 8 μM
[4] = PA 264-104354, compound at 8 μM
[5] = PA O200 (efflux-deficient), compound at 8 μM
[6] = PA O750 (efflux-deficient), compound at 8 μM

## polymyxin B nonapeptide [PMBN, reference compound]
P. aeruginosa; PA 91433
  MIC of Novobiocin + adjuvant (7.1 μM): 4 µg/mL
P. aeruginosa; PA 101243
  MIC of Novobiocin + adjuvant (7.1 μM): 8 µg/mL
P. aeruginosa; PA 114228
  MIC of Novobiocin + adjuvant (7.1 μM): 128 µg/mL
P. aeruginosa; PAO1
  MIC of Novobiocin + adjuvant (7.1 μM): 4 µg/mL
A. baumannii; AB 92247, PMBN or 1 at 7.1 μM
  MIC of Novobiocin + adjuvant (7.1 μM): 1 µg/mL
A. baumannii; colistin-resistant mutant B of A. baumannii ATCC 17978
  potentiation of novobiocin: did not potentiate
E. coli; E. coli 94393
  MIC of Novobiocin + adjuvant (7.1 μM): 4 µg/mL
E. coli; E. coli 94474
  MIC of Novobiocin + adjuvant (7.1 μM): 32 µg/mL
K. pneumoniae
  MIC of Novobiocin + adjuvant (7.1 μM): 64 µg/mL
E. cloacae
  MIC of Novobiocin + adjuvant (7.1 μM): 512 µg/mL

## NC[C@H]1O[C@H](O[C@H]2[C@H](OCCCCc3cn(CCCCO[C@@H]4[C@@H](O)[C@H](N)C[C@H](N)[C@H]4O[C@H]4O[C@H](CN)[C@@H](O)C[C@H]4N)nn3)[C@@H](O)[C@H](N)C[C@@H]2N)[C@H](N)C[C@@H]1O [Compound 26, Nebramine Homodimer]
P. aeruginosa
  MIC of CAZ in the presence of compound: 128 µg/mL
P. aeruginosa; [2]
  MIC of Aztreonam + compound: 1 µg/mL
  MIC of Ceftazidime + compound: 0.5 µg/mL
  MIC of Imipenem + compound: 2 µg/mL
  MIC of Piperacillin + compound: 8 µg/mL
P. aeruginosa; PA 259-96918, compound at 8 μM
  MIC of ATM in the presence of compound: 8 µg/mL
  MIC of IPM in the presence of compound: 64 µg/mL
P. aeruginosa; PA 260-97103, compound at 8 μM
  MIC of ATM in the presence of compound: 16 µg/mL
  MIC of CAZ in the presence of compound: 16 µg/mL
  MIC of IPM in the presence of compound: 16 µg/mL
P. aeruginosa; [3]
  MIC of ATM in the presence of compound: 16 µg/mL
  MIC of CAZ in the presence of compound: 16 µg/mL
  MIC of IPM in the presence of compound: 4 µg/mL
P. aeruginosa; [4]
  MIC of ATM in the presence of compound: 8 µg/mL
  MIC of CAZ in the presence of compound: 32 µg/mL
  MIC of IPM in the presence of compound: 8 µg/mL
P. aeruginosa; PA 86052, compound at 8 μM
  MIC of ATM in the presence of compound: 32 µg/mL
  MIC of CAZ in the presence of compound: 64 µg/mL
  MIC of IPM in the presence of compound: 16 µg/mL
P. aeruginosa; PA 88949, compound at 8 μM
  MIC of ATM in the presence of compound: 16 µg/mL
  MIC of CAZ in the presence of compound: 64 µg/mL
  MIC of IPM in the presence of compound: 32 µg/mL
P. aeruginosa; PA 91433, compound at 8 μM
  MIC of ATM in the presence of compound: 2 µg/mL
  MIC of CAZ in the presence of compound: 0.5 µg/mL
  MIC of IPM in the presence of compound: 8 µg/mL
P. aeruginosa; PA 100036, compound at 8 μM
  MIC of ATM in the presence of compound: 4 µg/mL
  MIC of CAZ in the presence of compound: 4 µg/mL
  MIC of IPM in the presence of compound: 4 µg/mL
P. aeruginosa; PA 101243, compound at 8 μM
  MIC of ATM in the presence of compound: 8 µg/mL
  MIC of CAZ in the presence of compound: 32 µg/mL
  MIC of IPM in the presence of compound: 8 µg/mL
P. aeruginosa; PA 101885, compound at 8 μM
  MIC of ATM in the presence of compound: 4 µg/mL
  MIC of CAZ in the presence of compound: 1 µg/mL
  MIC of IPM in the presence of compound: 4 µg/mL
P. aeruginosa; PA 107092, compound at 8 μM
  MIC of ATM in the presence of compound: 32 µg/mL
  MIC of IPM in the presence of compound: 32 µg/mL
P. aeruginosa; PA 108590, compound at 8 μM
  MIC of ATM in the presence of compound: 16 µg/mL
  MIC of CAZ in the presence of compound: 32 µg/mL
  MIC of IPM in the presence of compound: 8 µg/mL
P. aeruginosa; PA 109084, compound at 8 μM
  MIC of ATM in the presence of compound: 16 µg/mL
  MIC of CAZ in the presence of compound: 32 µg/mL
  MIC of IPM in the presence of compound: 16 µg/mL
P. aeruginosa; PA 114228, compound at 8 μM
  MIC of ATM in the presence of compound: 16 µg/mL
  MIC of CAZ in the presence of compound: 1 µg/mL
  MIC of IPM in the presence of compound: 4 µg/mL
P. aeruginosa; [5]
  MIC of ATM in the presence of compound: 0.06 µg/mL
  MIC of CAZ in the presence of compound: 0.25 µg/mL
  MIC of IPM in the presence of compound: 1 µg/mL
P. aeruginosa; [6]
  MIC of ATM in the presence of compound: 0.25 µg/mL
  MIC of CAZ in the presence of compound: 0.13 µg/mL
  MIC of IPM in the presence of compound: 2 µg/mL
P. aeruginosa; PAO1, compound at 8 μM
  MIC of ATM in the presence of compound: 1 µg/mL
  MIC of CAZ in the presence of compound: 0.5 µg/mL
  MIC of IPM in the presence of compound: 2 µg/mL
[1]; PAO1 (wild-type)
  MIC: >128 µg/mL
[1]; PAO200 (first column so headed)
  MIC: >128 µg/mL
[1]; PAO200 (second column so headed)
  MIC: 128 µg/mL (≈ 162 µM)

— US20220249441A1, “Homodimeric Tobramycin Adjuvant Repurposes Novobiocin as an Effective Antibacterial Agent Against Gram-Negative Bacteria” (priority 2019, published 2022)
